Reference: patent US10300042B2, “Apremilast for the treatment of a liver disease or a liver function abnormality” (Celgene Corporation, priority 2014, dated 2019)

Assays:
TNF-α = assay: Inhibition of TNF-α production in PBMCs; assay type: cell-based; settings: PBMC
Source text: The test methods were as described in WO 03/080049; Muller et al., J. Med. Chem., 1996, 39:3238; and Muller et al., Bioorg. Med. Chem. Lett., 1999, 9:1625-30.

PDE1 = PDE1 enzyme assay; assay type: biochemical; settings: at 10 μM
Description: (§1) PDE1, 2, 3 and 5 enzyme assays were prepared as described by Hidaka and Asano. Biochem. Biophys. Acta., 1976, 429:485; see also Nicholsen et al., Trends Pharmaco. Sci., 1991, 12:19. The PDE6 enzyme assay was prepared according to Baehr et al., J. Biol. Chem., 1979, 254:11669 and Gillespie et al., Mol. Pharm., 1989, 36: 773. The PDE7 enzyme assay was prepared according to Bloom and Beavo. Proc. Natl. Acad. Sci. USA, 1996, 93:14188-92.

PDE3 = PDE3 enzyme assay; assay type: biochemical; settings: at 10 μM
Description: as §1

[1] = test system: Aspartate Aminotransferase; assay: AST levels in PSOR-008 and PSOR-009 (plaque psoriasis); assay type: in vivo, human; settings: for AST High, % of patients / AST Low, % of patients / AST Normal, % of patients: Week 16, 30 mg BID
Description: Apremilast was studied in Phase 3 trials in patients with moderate to severe plaque psoriasis. […] The improvement in mild baseline liver function test abnormalities has been observed with apremilast daily use without any prescribed changes in physical activity, social or dietary habits. During the course of the study, there was observed a higher proportion of subjects in the apremilast treatment group (30 mg BID) with normal LFTs (i.e. normal levels of ALT and AST) at subsequent placebo-controlled study visits at week 16. See Tables 11 to 16 from PSOR-008 and PSOR-009 studies.

Alanine Aminotransferase = assay: ALT levels in RA-002 (rheumatoid arthritis); assay type: in vivo, human; settings: for ALT High to Normal, percent of patients / ALT Net Benefit / ALT Normal to High, percent of patients: end of treatment (week 16); for ALT High, % of patients / ALT Low, % of patients / ALT Normal, % of patients: Week 16
Description: The improvement in mild baseline liver function test abnormalities has been observed with apremilast daily use without any prescribed changes in physical activity, social or dietary habits. During the course of the study, there was observed a higher proportion of subjects in the 30 mg BID apremilast treatment group with normal LFTs at subsequent placebo-controlled study visits at week 16. See Tables 17 to 24 from RA-002 studies.

[2] = 30 BID, end of treatment (week 16)

CCOc1cc([C@@H](CS(C)(=O)=O)N2C(=O)c3cccc(NC(C)=O)c3C2=O)ccc1OC [Apremilast, (+)-2-[1-(3-ethoxy-4-methoxyphenyl)-2-methylsulfonylethyl]-4-acetylaminoisoindoline-1,3-dione]
IC50 (TNF-α): 77 nM | % inhibition PDE1 (PDE1): 23% | % inhibition PDE3 (PDE3): 20% | AST High to Normal, percent of patients [1, 2]: 60.3% | AST Net Benefit [1, 2]: 46.3% | AST Normal to High, percent of patients [1, 2]: 2.8% | AST High to Normal, Difference (APR 30 BID vs Placebo) ([1]; 30 BID, week 16): 17.9% | AST Net Benefit, Difference (APR 30 BID vs Placebo) ([1]; 30 BID, week 16): 12.2% | AST Normal to High, Difference (APR 30 BID vs Placebo) ([1]; 30 BID, week 16): 0.3% | AST High to Normal, Difference (APR 30 BID vs Placebo) ([1]; 30 BID, week 16, listed as APR): 17.9% | AST High, % of patients ([1]; Baseline High): 39.7% | AST Low, % of patients ([1]; Baseline High): 0.0% | AST Normal, % of patients ([1]; Baseline High): 60.3% | AST High, % of patients ([1]; Baseline Normal): 2.8% | AST Low, % of patients ([1]; Baseline Normal): 0.0% | AST Normal, % of patients ([1]; Baseline Normal): 97.2% | AST High, % of patients ([1]; Baseline Total): 5.9% | AST Low, % of patients ([1]; Baseline Total): 0.0% | AST Normal, % of patients ([1]; Baseline Total): 94.1% | ALT High to Normal, percent of patients (Alanine Aminotransferase; 20 BID): 25.0% | ALT Net Benefit (Alanine Aminotransferase; 20 BID): 14.3% | ALT Normal to High, percent of patients (Alanine Aminotransferase; 20 BID): 4.5% | ALT High to Normal, percent of patients (Alanine Aminotransferase; 30 BID): 66.7% | ALT Net Benefit (Alanine Aminotransferase; 30 BID): 40.0% | ALT Normal to High, percent of patients (Alanine Aminotransferase; 30 BID): 3.1% | ALT High to Normal, Difference between Placebo and APR 30 BID (Alanine Aminotransferase; 30 BID, week 16): 0% | ALT Net Benefit, Difference between Placebo and APR 30 BID (Alanine Aminotransferase; 30 BID, week 16): −26.7% | ALT Normal to High, Difference between Placebo and APR 30 BID (Alanine Aminotransferase; 30 BID, week 16): 3.1% | ALT High to Normal, Difference between Placebo and APR 30 BID (Alanine Aminotransferase; 30 BID, week 16, listed as APR): 0.0% | ALT High, % of patients (Alanine Aminotransferase; Baseline High, 20 mg BID): 75.0% | ALT Low, % of patients (Alanine Aminotransferase; Baseline High, 20 mg BID): 0.0% | ALT Normal, % of patients (Alanine Aminotransferase; Baseline High, 20 mg BID): 25.0% | ALT High, % of patients (Alanine Aminotransferase; Baseline High, 30 mg BID): 33.3% | ALT Low, % of patients (Alanine Aminotransferase; Baseline High, 30 mg BID): 0.0% | ALT Normal, % of patients (Alanine Aminotransferase; Baseline High, 30 mg BID): 66.7% | ALT High, % of patients (Alanine Aminotransferase; Baseline Normal, 20 mg BID): 4.5% | ALT Low, % of patients (Alanine Aminotransferase; Baseline Normal, 20 mg BID): 0.0% | ALT Normal, % of patients (Alanine Aminotransferase; Baseline Normal, 20 mg BID): 95.5% | ALT High, % of patients (Alanine Aminotransferase; Baseline Normal, 30 mg BID): 3.1% | ALT Low, % of patients (Alanine Aminotransferase; Baseline Normal, 30 mg BID): 0.0% | ALT Normal, % of patients (Alanine Aminotransferase; Baseline Normal, 30 mg BID): 96.9% | ALT High, % of patients (Alanine Aminotransferase; Baseline Total, 20 mg BID): 8.6% | ALT Low, % of patients (Alanine Aminotransferase; Baseline Total, 20 mg BID): 0.0% | ALT Normal, % of patients (Alanine Aminotransferase; Baseline Total, 20 mg BID): 91.4% | ALT High, % of patients (Alanine Aminotransferase; Baseline Total, 30 mg BID): 4.5% | ALT Low, % of patients (Alanine Aminotransferase; Baseline Total, 30 mg BID): 0.0% | ALT Normal, % of patients (Alanine Aminotransferase; Baseline Total, 30 mg BID): 95.5%
